# Laboratory results reported in ChEMBL document CHEMBL1201862, “PubChem BioAssay data set” (2004).
#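 Grown in 96-well plates, cells were treated for 48 hours with each compound at five concentrations. Insufficient inhibition: endpoint recorded as highest concentration tested. At the GI50, growth is halved.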 The source made the active and inactive calls. Cut-off read from the data, not from the text of the source: active = GI50 up to about 1.1 µM and inactive = higher.
# Columns and labels:
# Experiment in all cases: NCI-60 cell line screen, 48 h
# [1] = system: OVCAR-5
# [2] = system: SK-MEL-28
# [3] = system: Malme-3M
# [4] = system: SF-268
# [5] = system: CAKI-1
# [6] = system: HOP-92
# [7] = system: SK-MEL-5
# [8] = system: SF-295
# [9] = system: Hs-578T
# [10] = system: NCI-H23
# [11] = system: EKVX
# [12] = system: MDA-MB-231
# [13] = system: M14
# [14] = system: SK-MEL-2
# [15] = system: UACC-62
# [16] = system: RPMI-8226
# [17] = system: MDA-MB-435
# [18] = system: HCT-15
# [19] = system: UACC-257
# [20] = system: COLO 205
# [21] = system: U-251
# [22] = system: NCI-H522
# [23] = system: 786-0
# [24] = system: MDA-N
# [25] = system: DU-145
# [26] = system: SNB-19
# [27] = system: HCT-116
# [28] = system: NCI/ADR-RES
# [29] = system: OVCAR-3
# [30] = system: IGROV-1
# [31] = system: HOP-62
# [32] = system: SNB-75
# [33] = system: K562
# [34] = system: A549
# [35] = system: TK-10
# [36] = system: MOLT-4
# [37] = system: NCI-H460
# [38] = system: PC-3
# [39] = system: A498
# [40] = system: OVCAR-4
# [41] = system: SW-620
# [42] = system: RXF 393
# [43] = system: KM12
# [44] = system: HT-29
# [45] = system: SK-OV-3
# [46] = system: T47D
# [47] = system: HCC 2998
# [48] = system: UO-31
# [49] = system: ACHN
# [50] = system: BT-549
# [51] = system: MCF7
# [52] = system: OVCAR-8
# [53] = system: SN12C
# [54] = system: CCRF-CEM
# [55] = system: NCI-H226
# [56] = system: LOX IMVI
# [57] = system: HL-60
# [58] = system: SF-539
compound,measurement,setting,value
COC(=O)C1CC=C(SC(=O)c2ccccc2)N1C(=O)c1ccccc1 (stereo not drawn),GI50,[1],> 100 µM (inactive)
same,GI50,[2],> 100 µM (inactive)
same,GI50,[3],> 100 µM (inactive)
same,GI50,[4],> 100 µM (inactive)
same,GI50,[5],> 100 µM (inactive)
same,GI50,[6],> 100 µM (inactive)
same,GI50,[7],> 100 µM (inactive)
same,GI50,[8],> 100 µM (inactive)
same,GI50,[9],> 100 µM (inactive)
same,GI50,[10],> 100 µM (inactive)
same,GI50,[11],> 100 µM (inactive)
same,GI50,[12],> 100 µM (inactive)
same,GI50,[13],> 100 µM (inactive)
same,GI50,[14],> 100 µM (inactive)
same,GI50,[15],> 100 µM (inactive)
same,GI50,[16],> 100 µM (inactive)
same,GI50,[17],> 100 µM (inactive)
same,GI50,[18],> 100 µM
same,GI50,[19],> 100 µM (inactive)
same,GI50,[20],> 100 µM (inactive)
same,GI50,[21],> 100 µM (inactive)
same,GI50,[22],> 100 µM (inactive)
same,GI50,[23],> 100 µM (inactive)
same,GI50,[24],> 100 µM (inactive)
same,GI50,[25],> 100 µM (inactive)
same,GI50,[26],> 100 µM (inactive)
same,GI50,[27],> 100 µM (inactive)
same,GI50,[28],> 100 µM (inactive)
same,GI50,[29],> 100 µM (inactive)
same,GI50,[30],> 100 µM (inactive)
same,GI50,[31],> 100 µM (inactive)
same,GI50,[32],76 µM (inactive)
same,GI50,[33],> 100 µM (inactive)
same,GI50,[34],> 100 µM (inactive)
same,GI50,[35],> 100 µM (inactive)
same,GI50,[36],> 100 µM (inactive)
same,GI50,[37],39.6 µM (inactive)
same,GI50,[38],> 100 µM (inactive)
same,GI50,[39],> 100 µM (inactive)
same,GI50,[40],> 100 µM (inactive)
same,GI50,[41],> 100 µM (inactive)
same,GI50,[42],> 100 µM (inactive)
same,GI50,[43],> 100 µM (inactive)
same,GI50,[44],> 100 µM (inactive)
same,GI50,[45],> 100 µM (inactive)
same,GI50,[46],> 100 µM (inactive)
same,GI50,[47],> 100 µM (inactive)
same,GI50,[48],> 100 µM (inactive)
same,GI50,[49],> 100 µM (inactive)
same,GI50,[50],> 100 µM (inactive)
same,GI50,[51],> 100 µM (inactive)
same,GI50,[52],> 100 µM (inactive)
CCC12CCCN3CCc4c(n(c5ccccc45)C(O)(C(=O)OC)C1)C32 (stereo not drawn),GI50,[1],> 100 µM (inactive)
same,GI50,[2],> 100 µM (inactive)
same,GI50,[3],> 100 µM (inactive)
same,GI50,[4],> 100 µM (inactive)
same,GI50,[53],> 100 µM (inactive)
same,GI50,[5],> 100 µM (inactive)
same,GI50,[6],> 100 µM (inactive)
same,GI50,[7],> 100 µM (inactive)
same,GI50,[8],> 100 µM (inactive)
same,GI50,[9],> 100 µM (inactive)
same,GI50,[10],> 100 µM (inactive)
same,GI50,[11],> 100 µM (inactive)
same,GI50,[54],> 100 µM (inactive)
same,GI50,[12],> 100 µM (inactive)
same,GI50,[13],> 100 µM (inactive)
same,GI50,[55],> 100 µM (inactive)
same,GI50,[14],> 100 µM (inactive)
same,GI50,[15],> 100 µM (inactive)
same,GI50,[16],> 100 µM (inactive)
same,GI50,[17],> 100 µM (inactive)
same,GI50,[18],> 100 µM
same,GI50,[56],> 100 µM (inactive)
same,GI50,[19],> 100 µM (inactive)
same,GI50,[20],> 100 µM (inactive)
same,GI50,[21],> 100 µM (inactive)
same,GI50,[22],> 100 µM (inactive)
same,GI50,[23],> 100 µM (inactive)
same,GI50,[24],> 100 µM (inactive)
same,GI50,[25],> 100 µM (inactive)
same,GI50,[26],> 100 µM (inactive)
same,GI50,[27],> 100 µM (inactive)
same,GI50,[28],> 100 µM (inactive)
same,GI50,[29],> 100 µM (inactive)
same,GI50,[30],> 100 µM (inactive)
same,GI50,[32],> 100 µM (inactive)
same,GI50,[34],> 100 µM (inactive)
same,GI50,[35],> 100 µM (inactive)
same,GI50,[36],> 100 µM (inactive)
same,GI50,[37],> 100 µM (inactive)
same,GI50,[38],> 100 µM (inactive)
same,GI50,[39],> 100 µM (inactive)
same,GI50,[57],> 100 µM (inactive)
same,GI50,[40],> 100 µM (inactive)
same,GI50,[41],> 100 µM (inactive)
same,GI50,[43],> 100 µM (inactive)
same,GI50,[44],> 100 µM (inactive)
same,GI50,[45],> 100 µM (inactive)
same,GI50,[46],> 100 µM (inactive)
same,GI50,[47],> 100 µM (inactive)
same,GI50,[58],> 100 µM (inactive)
same,GI50,[48],> 100 µM (inactive)
same,GI50,[49],> 100 µM (inactive)
same,GI50,[50],> 100 µM (inactive)
same,GI50,[51],> 100 µM (inactive)
same,GI50,[52],> 100 µM (inactive)
COC(=O)C1=COC2OC3C(C(C)O)C(=O)OC34C=CC1C24 (stereo not drawn),GI50,[1],51.9 µM (inactive)
same,GI50,[2],31 µM (inactive)
same,GI50,[3],36.6 µM (inactive)
same,GI50,[4],49 µM (inactive)
same,GI50,[53],50.1 µM (inactive)
same,GI50,[5],55 µM (inactive)
same,GI50,[6],55.7 µM (inactive)
same,GI50,[7],57 µM (inactive)
same,GI50,[8],56.6 µM (inactive)
same,GI50,[9],34 µM (inactive)
same,GI50,[10],80.9 µM (inactive)
same,GI50,[11],81.7 µM (inactive)
same,GI50,[54],14.9 µM (inactive)
same,GI50,[12],> 100 µM (inactive)
same,GI50,[13],55.6 µM (inactive)
same,GI50,[55],> 100 µM (inactive)
same,GI50,[14],31 µM (inactive)
same,GI50,[15],29.3 µM (inactive)
same,GI50,[16],29.1 µM (inactive)
same,GI50,[17],31.6 µM (inactive)
same,GI50,[18],31.9 µM
same,GI50,[56],47.3 µM (inactive)
same,GI50,[19],> 100 µM (inactive)
same,GI50,[20],40.6 µM (inactive)
same,GI50,[21],60 µM (inactive)
same,GI50,[22],14.8 µM (inactive)
same,GI50,[23],53.8 µM (inactive)
same,GI50,[24],29.6 µM (inactive)
same,GI50,[25],57.1 µM (inactive)
same,GI50,[26],51.5 µM (inactive)
same,GI50,[27],47.5 µM (inactive)
same,GI50,[28],25 µM (inactive)
same,GI50,[29],29.5 µM (inactive)
same,GI50,[30],71.6 µM (inactive)
same,GI50,[32],35.8 µM (inactive)
same,GI50,[33],32.2 µM (inactive)
same,GI50,[34],> 100 µM (inactive)
same,GI50,[35],61.2 µM (inactive)
same,GI50,[36],24.3 µM (inactive)
same,GI50,[37],49.2 µM (inactive)
same,GI50,[38],85.5 µM (inactive)
same,GI50,[39],98.6 µM (inactive)
same,GI50,[57],15.5 µM (inactive)
same,GI50,[40],> 100 µM (inactive)
same,GI50,[41],29.4 µM (inactive)
same,GI50,[43],37.2 µM (inactive)
same,GI50,[44],44 µM (inactive)
same,GI50,[45],59.7 µM (inactive)
same,GI50,[46],39.4 µM (inactive)
same,GI50,[47],> 100 µM (inactive)
same,GI50,[58],30.1 µM (inactive)
same,GI50,[48],74.6 µM (inactive)
same,GI50,[49],44.7 µM (inactive)
same,GI50,[50],40.4 µM (inactive)
same,GI50,[51],40.1 µM (inactive)
same,GI50,[52],20.9 µM (inactive)
